Laboratory results taken from patent US11230543B2, “Biaryl monobactam compounds and methods of use thereof for the treatment of bacterial infections” (priority 2015, dated 2022).
Structures can show the parent of a compound that is named as a salt.

Legend:
[1] = test system: Klebsiella pneumoniae expressing KPC-1 (CL6569); test: Antibiotic activity: growth inhibitory concentration (OD600), Klebsiella pneumoniae CL6569; type: cell-based; conditions: lowest concentration inhibiting 95% of bacterial growth, in the presence of β lactamase inhibitor Relebactam 4 μg/mL, 35±2° C. for 22 hours, tested range 100 μM to 0.098 μM
Procedure: (§1) Antibiotic Activity: Determination of Growth Inhibitory Concentration
(§2) The concentrations of compounds required to inhibit the growth of various strains of bacteria were determined in an assay that assessed bacterial growth by measuring optical density at 600 nm (OD600). The bacterial strains tested included the clinical strains Escherichia coli expressing NDM-1 (CLB30016), Klebsiella pneumoniae expressing KPC-1 (CL6569), Acinetobacter baumannii expressing TEM-1, AmpC, and Oxa-24/40 (CL6188) and Pseudomonas aeruginosa expressing AmpC (CL5701). All compounds were tested in the presence of a β lactamase inhibitor (BLi, Relebactam) in 384-well microplates. The clinical strains were stored as frozen single use stocks, thawed and diluted into 1.1× cation-adjusted Mueller-Hinton II broth to achieve approximately 2×10^5 CFU/mL. Test compounds were dissolved in DMSO and diluted 1:50 in the assay, resulting in a final concentration range of 100 μM to 0.098 μM. On the day of the assay, 1 μL of test compound was added to the plate followed by 4 μL of 50 μg/mL BLi in MOPS buffer and 45 μL of diluted bacteria. Plates were centrifuged at 1000 rpm for 30 seconds, shaken at approximately 800 rpm for 1 minute, and incubated at 35±2° C. for 22 hours. The concentration of BLi used in the assay was 4 μg/mL. At the end of the incubation, absorbance at 600 nm was determined using a spectrophotometer. Inhibition was quantitated by identifying the lowest concentration of test compound that was required to inhibit 95% of the growth of the bacteria. The results for Examples 1-126 are reported in Table I, expressed as the concentration of compound that inhibited 95% of bacterial growth (Minimum Inhibitory Threshold Concentration; MITC95).

[2] = test system: Pseudomonas aeruginosa expressing AmpC (CL5701); test: Antibiotic activity: growth inhibitory concentration (OD600), Pseudomonas aeruginosa CL5701; type: cell-based; conditions: lowest concentration inhibiting 95% of bacterial growth; in the presence of β lactamase inhibitor Relebactam 4 μg/mL; 35±2° C. for 22 hours; tested range 100 μM to 0.098 μM
Procedure: as §1, §2

| Structure (SMILES) | KP_CL6569 MITC95 ([1]; 2,2,2-trifluoroacetate) | PA_CL5701 MITC95 [2] | KP_CL6569 MITC95 [1] |
| --- | --- | --- | --- |
| C[n+]1cc(-c2ccc(OCC(C)(O/N=C(\C(=O)N[C@@H]3C(=O)N(OS(=O)(=O)O)C3(C)C)c3csc(N)n3)C(=O)O)cc2)cn1CCCN (single isomer, unassigned) [Example 23A, 2,2,2-trifluoroacetate] | 0.3906 µM | 3.125 µM | – |
| C[n+]1cc(-c2ccc(OC[C@](C)(O/N=C(\C(=O)N[C@@H]3C(=O)N(OS(=O)(=O)O)C3(C)C)c3csc(N)n3)C(=O)O)cc2)cn1CCCN (single isomer, unassigned) [Example 23B, 2,2,2-trifluoroacetate] | – | 25 µM | 3.125 µM |
| C[n+]1cc(-c2ccc(OC[C@H](O/N=C(\C(=O)N[C@@H]3C(=O)N(OS(=O)(=O)[O-])C3(C)C)c3csc(N)n3)C(=O)O)cc2F)cn1C[C@@H](O)CN.O=CO (single isomer, unassigned) [Example 43] | – | 3.125 µM | 0.1953 µM |
| C[n+]1cc(-c2ccc(OC[C@H](O/N=C(\C(=O)N[C@@H]3C(=O)N(OS(=O)(=O)O)C3(C)C)c3csc(N)n3)C(=O)O)cc2F)cn1CC(N)CN (single isomer, unassigned) [Example 45] | – | 6.25 µM | 0.3906 µM |
| C[n+]1cc(-c2ccc(OC[C@H](O/N=C(\C(=O)N[C@@H]3C(=O)N(OS(=O)(=O)O)C3(C)C)c3csc(N)n3)C(=O)O)cc2F)cn1CC(N)CN (single isomer, unassigned) [Example 46] | – | 6.25 µM | 0.3906 µM |
| Cn1c(-c2ccc(OC[C@H](O/N=C(\C(=O)N[C@@H]3C(=O)N(OS(=O)(=O)O)C3(C)C)c3csc(N)n3)C(=O)O)cc2)cn(CC(O)CN)c1=N (single isomer, unassigned) [Example 56] | – | 3.125 µM | 0.3906 µM |
| C[n+]1cc(-c2ccc(OC(CO/N=C(\C(=O)N[C@@H]3C(=O)N(OS(=O)(=O)[O-])C3(C)C)c3csc(N)n3)C(=O)O)cc2)cn1CCCN (single isomer, unassigned) [Example 85] | – | 40 µM | 2.5 µM |
| C[n+]1cc(-c2ccc(CCC(O/N=C(\C(=O)N[C@@H]3C(=O)N(OS(=O)(=O)[O-])C3(C)C)c3csc(N)n3)C(=O)O)cc2)cn1CCCN (single isomer, unassigned) [Example 93] | – | 6.25 µM | 0.1953 µM |
| CC1(C)[C@H](NC(=O)/C(=N\O[C@@H](COc2ccc(-c3cn(CCCN)[n+](CC(F)CN)c3)cc2)C(=O)O)c2csc(N)n2)C(=O)N1OS(=O)(=O)[O-] (single isomer, unassigned) [Example 120] | – | 3.125 µM | 0.1953 µM |
| CC1[C@H](NC(=O)/C(=N\O[C@@H](COc2ccc(-c3cnn(CCCN)c3)cc2)C(=O)O)c2csc(N)n2)C(=O)N1S(=O)(=O)O (stereo in doubt) [Example 8, (S)-3-(4-(1-(3-aminopropyl)-1H-pyrazol-4-yl)phenoxy)-2-((((Z)-1-(2-aminothiazol-4-yl)-2-(((2R,3S)-2-methyl-4-oxo-1-sulfoazetidin-3-yl)amino)-2-oxoethylidene)amino)oxy)propanoic acid] | – | 25 µM | 3.125 µM |
| C[n+]1cc(-c2ccc(OCC(C)(O/N=C(\C(=O)N[C@@H]3C(=O)N(OS(=O)(=O)O)C3(C)C)c3nc(N)sc3Cl)C(=O)O)cc2)cn1CCCN (stereo in doubt) [Example 51A, (S)-3-((Z)-2-(2-Amino-5-chlorothiazol-4-yl)-2-((((R)-1-(4-(1-(3-aminopropyl)-2-methyl-1H-pyrazol-2-ium-4-yl)phenoxy)-2-carboxypropan-2-yl)oxy)imino)acetamido)-2,2-dimethyl-4-oxoazetidin-1-yl sulfate] | – | 3.125 µM | 0.7813 µM |
| Cn1c(-c2ccc(OC[C@H](O/N=C(\C(=O)N[C@@H]3C(=O)N(OS(=O)(=O)O)C3(C)C)c3csc(N)n3)C(=O)O)cc2)cn(CCCN)c1=NCCN (stereo in doubt) [Example 57, (S)-3-(4-((Z)-2-((2-aminoethyl)imino)-1-(3-aminopropyl)-3-methyl-2,3-dihydro-1H-imidazol-4-yl)phenoxy)-2-((((Z)-1-(2-aminothiazol-4-yl)-2-(((S)-2,2-dimethyl-4-oxo-1-(sulfooxy)azetidin-3-yl)amino)-2-oxoethylidene)amino)oxy)propanoic acid] | – | 3.125 µM | 0.1953 µM |
| CC1(C)[C@H](NC(=O)/C(=N\OC(COc2ccc(C(N)CNC3=NCCN3)cc2)C(=O)O)c2csc(N)n2)C(=O)N1OS(=O)(=O)O (stereo in doubt) [Example 59, (R)-3-(4-((S)-1-amino-2-((4,5-dihydro-1H-imidazol-2-yl)amino)ethyl)phenoxy)-2-((((Z)-1-(2-aminothiazol-4-yl)-2-(((S)-2,2-dimethyl-4-oxo-1-(sulfooxy)azetidin-3-yl)amino)-2-oxoethylidene)amino)oxy)propanoic acid] | – | 12.5 µM | 3.125 µM |
| C[n+]1cc(-c2ccc(OC[C@H](O/N=C(\C(=O)N[C@@H]3C(=O)N(OS(=O)(=O)[O-])C3(C)C)c3csc(N)n3)C(=O)O)cc2)cn1CCCN [Example 1, (S)-3-((Z)-2-(2-aminothiazol-4-yl)-2-(((S)-2-(4-(1-(3-ammoniopropyl)-2-methyl-1H-pyrazol-2-ium-4-yl)phenoxy)-1-carboxyethoxy)imino)acetamido)-2,2-dimethyl-4-oxoazetidin-1-yl sulfate 2,2,2-trifluoroacetate] | – | 3.125 µM | 0.3906 µM |
| C[n+]1cn(CCCN)cc1-c1ccc(OC[C@H](O/N=C(\C(=O)NC2C(=O)N(OS(=O)(=O)[O-])C2(C)C)c2csc(N)n2)C(=O)O)cc1 (stereo partly drawn) [Example 2, (S)-3-((Z)-2-(2-aminothiazol-4-yl)-2-(((S)-2-(4-(1-(3-ammoniopropyl)-3-methyl-1H-imidazol-3-ium-4-yl)phenoxy)-1-carboxyethoxy)imino)acetamido)-2,2-dimethyl-4-oxoazetidin-1-yl-sulfate] | – | 3.125 µM | 0.3906 µM |
| C[n+]1cc(-c2c(F)cc(OC[C@H](O/N=C(\C(=O)N[C@@H]3C(=O)N(OS(=O)(=O)O)C3(C)C)c3csc(N)n3)C(=O)O)cc2F)cn1CCCN.O=C(O)C(F)(F)F [Example 3, (S)-3-((Z)-2-(((S)-2-(4-(1-(3-aminopropyl)-2-methyl-1H-pyrazol-2-ium-4-yl)-3,5-difluorophenoxy)-1-carboxyethoxy)imino)-2-(2-aminothiazol-4-yl)acetamido)-2,2-dimethyl-4-oxoazetidin-1-yl sulfate compound with 2,2,2-trifluoroacetic acid (1:1)] | – | 6.25 µM | 0.39 µM |
| C[n+]1cc(-c2ccc(OCCO/N=C(\C(=O)N[C@@H]3C(=O)N(OS(=O)(=O)O)C3(C)C)c3csc(N)n3)cc2)cn1CCCN [Example 4, (S,Z)-3-(2-((2-(4-(1-(3-aminopropyl)-2-methyl-1H-pyrazol-2-ium-4-yl)phenoxy)ethoxy)imino)-2-(2-aminothiazol-4-yl)acetamido)-2,2-dimethyl-4-oxoazetidin-1-yl sulfate] | – | 25 µM | 1.281 µM |
| CC1(C)[C@H](NC(=O)/C(=N\OCCOc2ccc(-c3cnn(CCCN)c3)cc2)c2csc(N)n2)C(=O)N1OS(=O)(=O)O [Example 5, (S,Z)-3-(2-((2-(4-(1-(3-aminopropyl)-1H-pyrazol-4-yl)phenoxy)ethoxy)imino)-2-(2-aminothiazol-4-yl)acetamido)-2,2-dimethyl-4-oxoazetidin-1-yl sulfate] | – | 50 µM | 6.25 µM |
| C[C@H]1[C@H](NC(=O)/C(=N\O[C@@H](COc2ccc(-c3cnn(CCCN)c3)cc2)C(=O)O)c2csc(N)n2)C(=O)N1S(=O)(=O)O [Example 6, (S)-3-(4-(1-(3-aminopropyl)-1H-pyrazol-4-yl)phenoxy)-2-((((Z)-1-(2-aminothiazol-4-yl)-2-(((2S,3S)-2-methyl-4-oxo-1-sulfoazetidin-3-yl)amino)-2-oxoethylidene)amino)oxy)propanoic acid] | – | 100 µM | 12.5 µM |
